Publication PMC10823733, “Promising antibacterial efficacy of arenicin peptides against the emerging opportunistic pathogen Mycobacterium abscessus” (Journal of Biomedical Science, 2024)
Like-named read-outs stand apart in the source and are kept apart here. Positions of bridges follow the written chain, without caps; N, C: chain ends. Non-standard residues stand in square brackets, D forms with d. Residues, ends and D or L forms follow the SMILES beside them. Abu = CC[C@H](N)C(=O)O

Tests used:
[1] = test system: M. abscessus CIP 104536 T R variant; assay: microbe, parasite or virus in culture; type: cell-based, Mycobacterium abscessus
Description: (§1) Mycobacterium abscessus S and R strains (CIP 104536^ T) were grown in Middlebrook 7H9 medium supplemented with 0.05% (v/v) Tween 80, 0.2% (v/v) glycerol and 10% (v/v) oleic acid–albumin–dextrose–catalase (OADC enrichment; BD Difco) (7H9-S^OADC) at 37 °C under stirring (200 rpm). We used Ar-1 (RWC^3VYAYVRVRGVLVRYRRC^20W) and Ar-1-Abu, in which the cysteines in position 3 and 20 were replaced by alpha-amino-n-butyric acid (Abu) residues. We also tested Ar-2 (RWC^3VYAYVRIRGVLVRYRRC^20W), Ar-2-Abu (cysteines 3 and 20 replaced), Ar-3 (GFC^3WYVC^7VYRNGVRVC^16YRRC^20N), Ar-3-Abu (all four cysteines were replaced by Abu), Ar-3(3–20) (cysteines 7 and 16 replaced), and Ar-3(7–16) (cysteines 3 and 20 replaced). All arenicins and arenicin-Abu derivatives were obtained from GenScript (Piscataway, NJ, USA) with purity higher than 95%.
(§2) For determining the antimicrobial activity of the different peptides, the Middlebrook 7H9 broth microdilution method was used in sterile 96-well flat-bottom Greiner Bio-One polypropylene microplates with lid (Thermo Fisher Scientific) using the resazurin microtiter assay (REMA). Briefly, Mycobacterium abscessus was cultured up to mid log-phase (OD600 ~ 1.5–2) and diluted to a cell density of 5 × 10^6 cells/mL in 7H9-S^OADC. Then, 100 µL of this above inoculum was distributed to each well containing serial two-fold dilutions of arenicin, arenicin derivative or controls to a final volume of 200 µL. Growth controls containing no peptide (i.e., bacteria only = B), inhibition controls containing 50 µg/mL kanamycin (Euromedex, Souffelweyersheim, France) and sterility controls (i.e., medium only) without bacteria were included. After 5 days incubation at 37° C in a humidity chamber to prevent evaporation, 20 µL of a 0.025% (w/v) resazurin solution was added to each well. The microplate was re-incubated until appearance of a color change from blue to pink in the control well (i.e., bacteria without antibiotics). Fluorescence of the metabolite resorufin (λex/λem = 530/590 nm) was measured using a Tecan Spark 10 M ™ multimode microplate reader (Tecan Group Ltd, France). Relative fluorescence units (RFU) were defined as: RFU% = (test well FU/mean FU of control B wells) × 100. MIC50 and MIC90 values were determined by fitting the RFU% sigmoidal dose–response curves in Kaleidagraph 4.2 software (Synergy Software, Reading, PA). The concentration of peptide leading to 50% and 90% inhibition of M. abscessus growth was defined as the MIC50 and MIC90, respectively. All experiments were performed independently at least three times.

[2] = test system: M. abscessus CIP 104536 T S variant; assay: microbe, parasite or virus in culture; type: cell-based, Mycobacterium abscessus
Description: as §1, §2

[3] = Cytotoxic assay on human cells (resazurin); type: cell-based; conditions: A498, 48 h exposure
Description: (§3) The toxicity of each peptide was evaluated on human cell lines using a resazurin assay as previously described. Human lung epithelial cells BEAS-2B (ATCC CRL-9609), liver cells HepG2 (ATCC HB-8065), and kidney cells A498 (ATCC HTB-44) were used. All cells were cultured in Dulbecco's modified essential medium (DMEM) supplemented with 10% heat-inactivated fetal calf serum (FBS, Thermo Fisher Scientific), and 1% L-glutamine (Thermo Fisher Scientific) (DMEM^FBS) at 37 °C in a 5% CO2 incubator to subconfluent concentrations. Cells were detached with trypsin–EDTA solution (Thermo Fisher Scientific), and around 1 × 10^4 cells/well were seeded in 96-well flat-bottom microplates (Greiner Bio-One) with a lid, and cultured for additional 48–72 h at 37 °C and 5% CO2 until cell confluence. The medium was removed, and 100 µL of serial two-fold dilutions of the peptides in DMEM^FBS were added to each well. Following a 48 h-incubation period at 37 °C and 5% CO2, cell viability was evaluated using the resazurin assay as described above. Fluorescence of the resazurin metabolite resorufin (λex/λem = 530/590 nm) was measured after 2 h incubation at 37 °C and 5% CO2 in the dark, with a microplate reader (Biotek, Synergy Mx, Colmar, France). The cytotoxic concentration of peptide leading to 50% cell death as compared to the control was defined as the CC50, and was determined by fitting the RFU% sigmoidal dose–response curves in Kaleidagraph 4.2 software (Synergy Software). All experiments were conducted in triplicate.

[4] = test system: human erythrocytes; type: cell-based
Description: The hemolytic activity of each peptide was determined as previously described. Briefly, human erythrocytes (red blood cells, hRBC; Divbioscience, Ulvenhout, Netherlands) were washed 2-times with sterile phosphate buffered saline (PBS; Thermo Fisher Scientific) and pelleted by centrifugation at 800 rpm for 5 min; then resuspended in DMEM^FBS to a final erythrocyte concentration of 8% (v/v). Then, 100 µL of this hRBC solution was distributed to each well of sterile 96-well flat-bottom microplates (Greiner Bio-One) containing serial two-fold dilutions of arenicin, arenicin-Abu derivative or controls in DMEM^FBS to a final volume of 200 µL. After 1 h incubation at 37 °C, microplates were centrifuged at 800 rpm for 5 min. Then, 100 µL of supernatant were carefully transferred to a new 96-well microplate, and OD405 corresponding to the release of hemoglobin was measured using a microplate reader (Biotek, Synergy Mx, Colmar, France). DMEM^FBS and Triton-X100 at 0.1% (v/v) were used as negative (i.e., 0% hemolysis) and positive (i.e., 100% hemolysis) controls, respectively. The concentration of peptide leading to 10% and 50% of hemolysis compared to the positive control was defined as the HC10 and HC50, respectively, and was determined by fitting the dose–response curves in Kaleidagraph 4.2 software (Synergy Software). All experiments were done in triplicate.

[5] = type: cell-based, human
Description: as §3

[6] = type: cell-based, human; remark: listed apart in the source
Description: as §3

[7] = Mycobacteroides abscessus, CIP104536, 120 h
[8] = S variant, 50% inhibition of in vitro growth, REMA, 5 days
[9] = S variant, 90% inhibition of in vitro growth, REMA, 5 days

Compound	MIC50 [1, 7]	MIC90 [1, 7]	MIC50 [2, 7]	MIC90 [2, 7]	CC50 [3]	HC10 ([4]; red cells of human, 1 h)	HC50 ([4]; red cells of human, 1 h)	CC50 [5]	CC50 [6]	HC50 [4]	MIC50 [2, 8]	MIC90 [2, 9]	hemolytic activity on human erythrocytes (in words, considering HC10) [4]	MIC50 ([1]; R variant, 50% inhibition of in vitro growth, REMA, 5 days)	MIC90 ([1]; R variant, 90% inhibition of in vitro growth, REMA, 5 days)
NCC[C@H](O)C(=O)N[C@@H]1C[C@H](N)[C@@H](O[C@H]2O[C@H](CN)[C@@H](O)[C@H](O)[C@H]2O)[C@H](O)[C@H]1O[C@H]1O[C@H](CO)[C@@H](O)[C@H](N)[C@H]1O [AMK, amikacin, reference compound]	7.4 ± 0.26 µM	10.1 µM	3.9 ± 0.19 µM	5.8 µM											
CC[C@H](NC(=O)[C@H](CCCNC(=N)N)NC(=O)[C@H](CCCNC(=N)N)NC(=O)[C@H](Cc1ccc(O)cc1)NC(=O)[C@H](CCCNC(=N)N)NC(=O)[C@@H](NC(=O)[C@H](CC(C)C)NC(=O)[C@@H](NC(=O)CNC(=O)[C@H](CCCNC(=N)N)NC(=O)[C@@H](NC(=O)[C@H](CCCNC(=N)N)NC(=O)[C@@H](NC(=O)[C@H](Cc1ccc(O)cc1)NC(=O)[C@H](C)NC(=O)[C@H](Cc1ccc(O)cc1)NC(=O)[C@@H](NC(=O)[C@H](CC)NC(=O)[C@H](Cc1c[nH]c2ccccc12)NC(=O)[C@@H](N)CCCNC(=N)N)C(C)C)C(C)C)[C@@H](C)CC)C(C)C)C(C)C)C(=O)N[C@@H](Cc1c[nH]c2ccccc12)C(=O)O [Ar-2-Abu] (H-RW[Abu]VYAYVRIRGVLVRYRR[Abu]W-OH)					92.1 ± 2.3 µM	15.4 ± 1.0 µM	> 100 µM	> 100 µM	> 100 µM						
CC[C@H](C)[C@@H]1NC(=O)[C@H](CCCNC(=N)N)NC(=O)[C@H](C(C)C)NC(=O)[C@H](Cc2ccc(O)cc2)NC(=O)[C@H](C)NC(=O)[C@H](Cc2ccc(O)cc2)NC(=O)[C@H](C(C)C)NC(=O)[C@@H](NC(=O)[C@H](Cc2c[nH]c3ccccc23)NC(=O)[C@@H](N)CCCNC(=N)N)CSSC[C@@H](C(=O)N[C@@H](Cc2c[nH]c3ccccc23)C(=O)O)NC(=O)[C@H](CCCNC(=N)N)NC(=O)[C@H](CCCNC(=N)N)NC(=O)[C@H](Cc2ccc(O)cc2)NC(=O)[C@H](CCCNC(=N)N)NC(=O)[C@H](C(C)C)NC(=O)[C@H](CC(C)C)NC(=O)[C@H](C(C)C)NC(=O)CNC(=O)[C@H](CCCNC(=N)N)NC1=O [Ar-2] (H-RWCVYAYVRIRGVLVRYRRCW-OH; disulfide 3-20)					37.7 ± 1.1 µM	4.9 ± 0.7 µM		> 100 µM	> 100 µM	29.2 µM					
CC[C@@H]1NC(=O)[C@H](C(C)C)NC(=O)[C@H](CCCNC(=N)N)NC(=O)[C@H](C(C)C)NC(=O)CNC(=O)[C@H](CC(N)=O)NC(=O)[C@H](CCCNC(=N)N)NC(=O)[C@H](Cc2ccc(O)cc2)NC(=O)[C@H](C(C)C)NC(=O)[C@H](CC)NC(=O)[C@H](C(C)C)NC(=O)[C@H](Cc2ccc(O)cc2)NC(=O)[C@H](Cc2c[nH]c3ccccc23)NC(=O)[C@@H](NC(=O)[C@H](Cc2ccccc2)NC(=O)CN)CSSC[C@@H](C(=O)N[C@@H](CC(N)=O)C(=O)O)NC(=O)[C@H](CCCNC(=N)N)NC(=O)[C@H](CCCNC(=N)N)NC(=O)[C@H](Cc2ccc(O)cc2)NC1=O [Ar-3(3–20)] (H-GFCWYV[Abu]VYRNGVRV[Abu]YRRCN-OH; disulfide 3-20)					42 ± 1.3 µM	> 100 µM	> 100 µM	> 100 µM	> 100 µM		48.3 µM	> 100 µM	totally inactive		
CC[C@H](NC(=O)[C@H](CCCNC(=N)N)NC(=O)[C@H](CCCNC(=N)N)NC(=O)[C@H](Cc1ccc(O)cc1)NC(=O)[C@@H]1CSSC[C@H](NC(=O)[C@@H](NC(=O)[C@H](Cc2ccc(O)cc2)NC(=O)[C@H](Cc2c[nH]c3ccccc23)NC(=O)[C@H](CC)NC(=O)[C@H](Cc2ccccc2)NC(=O)CN)C(C)C)C(=O)N[C@@H](C(C)C)C(=O)N[C@@H](Cc2ccc(O)cc2)C(=O)N[C@@H](CCCNC(=N)N)C(=O)N[C@@H](CC(N)=O)C(=O)NCC(=O)N[C@@H](C(C)C)C(=O)N[C@@H](CCCNC(=N)N)C(=O)N[C@@H](C(C)C)C(=O)N1)C(=O)N[C@@H](CC(N)=O)C(=O)O [Ar-3(7–16)] (H-GF[Abu]WYVCVYRNGVRVCYRR[Abu]N-OH; disulfide 7-16)					37.7 ± 1.2 µM	41.1 ± 4.3 µM	> 100 µM	> 100 µM	> 100 µM						
CC[C@H](NC(=O)[C@H](CCCNC(=N)N)NC(=O)[C@H](CCCNC(=N)N)NC(=O)[C@H](Cc1ccc(O)cc1)NC(=O)[C@H](CC)NC(=O)[C@@H](NC(=O)[C@H](CCCNC(=N)N)NC(=O)[C@@H](NC(=O)CNC(=O)[C@H](CC(N)=O)NC(=O)[C@H](CCCNC(=N)N)NC(=O)[C@H](Cc1ccc(O)cc1)NC(=O)[C@@H](NC(=O)[C@H](CC)NC(=O)[C@@H](NC(=O)[C@H](Cc1ccc(O)cc1)NC(=O)[C@H](Cc1c[nH]c2ccccc12)NC(=O)[C@H](CC)NC(=O)[C@H](Cc1ccccc1)NC(=O)CN)C(C)C)C(C)C)C(C)C)C(C)C)C(=O)N[C@@H](CC(N)=O)C(=O)O [Ar-3-Abu] (H-GF[Abu]WYV[Abu]VYRNGVRV[Abu]YRR[Abu]N-OH)					36.6 ± 0.9 µM	39.3 ± 3.2 µM	> 100 µM	> 100 µM	> 100 µM		> 100 µM	> 100 µM		> 100 µM	> 100 µM
CC(C)[C@@H]1NC(=O)CNC(=O)[C@H](CC(N)=O)NC(=O)[C@H](CCCNC(=N)N)NC(=O)[C@H](Cc2ccc(O)cc2)NC(=O)[C@H](C(C)C)NC(=O)[C@@H]2CSSC[C@H](NC(=O)[C@H](C(C)C)NC(=O)[C@H](CCCNC(=N)N)NC1=O)C(=O)N[C@@H](Cc1ccc(O)cc1)C(=O)N[C@@H](CCCNC(=N)N)C(=O)N[C@@H](CCCNC(=N)N)C(=O)N[C@H](C(=O)N[C@@H](CC(N)=O)C(=O)O)CSSC[C@H](NC(=O)[C@H](Cc1ccccc1)NC(=O)CN)C(=O)N[C@@H](Cc1c[nH]c3ccccc13)C(=O)N[C@@H](Cc1ccc(O)cc1)C(=O)N[C@@H](C(C)C)C(=O)N2 [Ar-3] (H-GFCWYVCVYRNGVRVCYRRCN-OH; disulfide 3-20, 7-16)					46.7 ± 1.7 µM	30.3 ± 2.5 µM	> 100 µM	> 100 µM	> 100 µM		5.3 µM	12.2 µM			
